According to paper PMC6429200, “Synthesis and Broad Antiviral Activity of Novel 2-aryl-isoindolin-1-ones towards Diverse Enterovirus A71 Clinical Isolates” (Molecules, 2019):

Experiments:
[1] = system: EV-A71 strain Jiangsu52 (JS52); test: CPE inhibition assay for anti-EV-A71 in Vero cells, Jiangsu52 strain; format: cell-based, Enterovirus 71 (EV-A71); conditions: for Jiangsu52 SI: CC50/EC50; for EC50: Enterovirus A, EVA71, Vero cells, 100TCID50, 48 h
Description: (§1) An in-vitro antiviral assay was established using the Africa monkey kidney cell line Vero which was infected with different EV-A71 clinical isolates (BrCr, H, Shenzhen98 and Jiangsu52). A total of 24 synthetic compounds were initially screened in such an assay to determine their inhibitory effect on virus replication at 3-fold diluted concentrations serial (400~0.18 μM). The 50% effective concentration (EC50) of each compound was calculated according to its inhibitory rate values with the Reed–Muench method. The 50% cytotoxic concentration (CC50) was defined as the concentration that inhibited 50% cellular growth in comparison with the controls. The selectivity index (SI) was calculated as CC50/EC50. […] Generally, the EV-A71 H strain was less sensitive to most of the active compounds as compared to the other virus strains.
(§2) EV-A71 strain ShenZhen98 (SZ98) was isolated from the throat swab sample of an HFMD case which occurred in 1998 in China. This was kindly provided by Dr. Qi Jin, Institute of Pathogen Biology, Chinese Academy of Medical Science and Peking Union Medical School, Beijing, China. EV-A71 strains BrCr (VR-1775) and H (VR-1432) were purchased from the ATCC. The EV-A71 strain JS52 was a kind gift from Dr. Xiangzhong Ye, Beijing Wantai Biological Pharmacy Enterprise Co., Ltd. EV-A71 were all passaged in Vero cells.
(§3) The anti-EV-A71 activity of compounds was determined by the CPE inhibition method. Briefly, cells (3 × 10^4 cells/well) were plated into 96-well culture plates for incubation for 24 h. The medium was then removed and cells were infected with EV-A71 with 100TCID50 (50% tissue culture infective doses) in serum-free medium for 1 h at 37 °C. Then, the unbound viruses were removed and various concentrations of compounds were supplemented and incubated for another 48 h. The EC50 was determined by the Reed–Muench method. The selectivity index was calculated as the ratio of CC50/EC50 [15].

[2] = Cytotoxicity assay (CPE) on Vero cells; format: cell-based; conditions: African green monkey; Vero cells, 3 days of incubation, Reed–Muench; read-out: CC50
Description: as §1
African green monkey kidney (Vero) cells were purchased from the American Type Culture Collection (ATCC) and were cultured in minimum essential medium (MEM) supplemented with 10% fetal bovine serum (FBS) (GIBCO) and antibiotics (100 U/mL penicillin and […] streptomycin) at 37 °C in a 5% CO2 incubator.
The cytotoxic effects of compounds on Vero cells were detected by the cytopathic effect (CPE) assay. Briefly, cells (3 × 10^4 cells/well) were seeded into 96-well culture plates and incubated overnight. Then, the medium was removed and different concentrations of compounds were applied in triplicate. After 3 days of incubation, the CC50 was defined as the concentration that inhibited 50% cellular growth in comparison with the untreated controls, as calculated by the Reed–Muench method.

[3] = system: EV-A71 strain H; test: CPE inhibition assay for anti-EV-A71 in Vero cells, H strain; format: cell-based, Enterovirus 71 (EV-A71); conditions: for H SI: CC50/EC50; for EC50: Enterovirus A, EVA71, Vero cells, 100TCID50, 48 h
Description: as §1, §2, §3

[4] = system: EV-A71 strain ShenZhen98 (SZ98); test: CPE inhibition assay for anti-EV-A71 in Vero cells, Shenzhen98 strain; format: cell-based, Enterovirus 71 (EV-A71); conditions: for Shenzhen98 SI: CC50/EC50; for EC50: Enterovirus A, EVA71, Vero cells, 100TCID50, 48 h
Description: as §1, §2, §3

[5] = system: EV-A71 strain BrCr; test: CPE inhibition assay for anti-EV-A71 in Vero cells, BrCr strain; format: cell-based, Enterovirus 71 (EV-A71); conditions: for BrCr SI: CC50/EC50; for EC50: Enterovirus A, EVA71, Vero cells, 100TCID50, 48 h
Description: as §1, §2, §3

SMILES | EC50 [1] [µM] | EC50 [3] [µM] | EC50 [4] [µM] | EC50 [5] [µM] | Jiangsu52 SI [1] | CC50 at 3 days [2] [µM] | H SI [3] | Shenzhen98 SI [4] | BrCr SI [5]
O=C1c2ccccc2CN1c1ccc(F)cc1 [Compound A2, 2-(4-fluorophenyl)isoindolin-1-one] | 3.74 ± 0.8 | 4.43 ± 0.88 | 4.43 ± 0.68 | 3.23 ± 0.25 | 58 | 218 ± 22.3 | 49 | 49 | 67
O=C1c2ccccc2CN1c1ccc(-c2ccccc2)cc1 [Compound A6, 2-([1,1’-biphenyl]-4-yl)isoindolin-1-one] |  |  |  |  | / (/ represents selectivity index (SI) value of less than 10) | 218 ± 22.3 | / (/ represents selectivity index (SI) value of less than 10) | / (/ represents selectivity index (SI) value of less than 10) | / (/ represents selectivity index (SI) value of less than 10)
O=C1c2ccccc2CN1c1ccc2ccncc2c1 [Compound A9, 2-(isoquinolin-7-yl)isoindolin-1-one] | 17 ± 2.92 |  | 17 ± 2.92 | 17 ± 2.92 | / (/ represents selectivity index (SI) value of less than 10) | 96.5 ± 9.34 | / (/ represents selectivity index (SI) value of less than 10) | / (/ represents selectivity index (SI) value of less than 10) | / (/ represents selectivity index (SI) value of less than 10)
O=C(O)c1ccc(N2Cc3ccccc3C2=O)cc1 [Compound A10, 4-(1-oxoisoindolin-2-yl)benzoic acid] | 14.6 ± 2.24 | 13.7 ± 5.71 | 14.6 ± 2.24 | 12.9 ± 2.24 | / (/ represents selectivity index (SI) value of less than 10) | 46.2 | / (/ represents selectivity index (SI) value of less than 10) | / (/ represents selectivity index (SI) value of less than 10) | / (/ represents selectivity index (SI) value of less than 10)
CN1CCN(C(=O)c2ccc(N3Cc4ccccc4C3=O)cc2)CC1 [Compound A11, 2-(4-(4-methylpiperazine-1-carbonyl)phenyl)isoindolin-1-one] |  |  |  |  | / (/ represents selectivity index (SI) value of less than 10) | 115 | / (/ represents selectivity index (SI) value of less than 10) | / (/ represents selectivity index (SI) value of less than 10) | / (/ represents selectivity index (SI) value of less than 10)
CCCN(CCC)c1ccc2c(c1)CN(c1ccc(OC)cc1)C2=O [Compound B4, 5-(dipropylamino)-2-(4-methoxyphenyl)isoindolin-1-one] |  |  |  |  | / (/ represents selectivity index (SI) value of less than 10) | 124 ± 12.6 | / (/ represents selectivity index (SI) value of less than 10) | / (/ represents selectivity index (SI) value of less than 10) | / (/ represents selectivity index (SI) value of less than 10)

Further compounds by falling EC50 [1], results first:

EC50 [1] [µM] | EC50 [3] [µM] | EC50 [4] [µM] | EC50 [5] [µM] | SMILES | Jiangsu52 SI [1] | CC50 at 3 days [2] [µM] | H SI [3] | Shenzhen98 SI [4] | BrCr SI [5]
40.3 ± 5.54 |  | 34.6 ± 6.54 | 34.6 ± 6.54 | CCCN(CCC)c1ccc2c(c1)C(=O)N(c1ccc(OC)cc1)C2 [Compound B2, 6-(dipropylamino)-2-(4-methoxyphenyl)isoindolin-1-one] | / (/ represents selectivity index (SI) value of less than 10) | 257 ± 35.3 | / (/ represents selectivity index (SI) value of less than 10) | / (/ represents selectivity index (SI) value of less than 10) | / (/ represents selectivity index (SI) value of less than 10)
30.3 ± 2.38 | 24.4 ± 9.37 | 30.3 ± 2.38 | 27 ± 3.38 | O=C(c1ccc(N2Cc3ccccc3C2=O)cc1)N1CCOCC1 [Compound A12, 2-(4-(morpholin-4-carbonyl)phenyl)isoindolin-1-one] | / (/ represents selectivity index (SI) value of less than 10) | 180 ± 27.3 | / (/ represents selectivity index (SI) value of less than 10) | / (/ represents selectivity index (SI) value of less than 10) | / (/ represents selectivity index (SI) value of less than 10)
20.6 ± 1.01 |  | 18.4 ± 2.41 | 18.4 ± 2.41 | CCCNc1ccc2c(c1)CN(c1ccc(OC)cc1)C2=O [Compound B3, 2-(4-methoxyphenyl)-5-(propylamino)isoindolin-1-one] | 11 | 231 | / (/ represents selectivity index (SI) value of less than 10) | 13 | 13
12.6 ± 2.22 |  | 13 ± 2 | 12.6 ± 2.22 | COc1cc(N2Cc3ccccc3C2=O)cc(OC)c1OC [Compound A8, 2-(3,4,5-trimethoxyphenyl)isoindolin-1-one] | / (/ represents selectivity index (SI) value of less than 10) | 76.5 ± 13.1 | / (/ represents selectivity index (SI) value of less than 10) | / (/ represents selectivity index (SI) value of less than 10) | / (/ represents selectivity index (SI) value of less than 10)
9.7 ± 0.76 | 16.2 ± 1.9 | 9.12 ± 0.76 | 9.12 ± 0.76 | COc1ccc(N2Cc3cc(N)ccc3C2=O)cc1 [Compound 5, 5-amino-2-(4-methoxyphenyl)isoindolin-1-one] | 16 | 159 ± 17.1 |  | 17 | 17
7.87 ± 0.91 | 28.7 ± 4.07 | 7.87 ± 0.91 | 7.87 ± 0.91 | O=C1c2ccccc2CN1c1ccccc1 [Compound A1, 22-phenylisoindolin-1-one] | 47 | 370 ± 39.8 | 13 | 47 | 47
5.74 ± 0.54 | 11.7 ± 2.1 | 5.27 ± 0.44 | 5.27 ± 0.44 | COc1ccc(N2Cc3ccc(N)cc3C2=O)cc1 [Compound 4, 6-amino-2-(4-methoxyphenyl)isoindolin-1-one] | 40 | 231 | 19 | 43 | 44
1.27 ± 0.01 | 1.81 ± 0.21 | 1.39 ± 0.17 | 1.27 ± 0.01 | O=C1c2ccccc2CN1c1ccc(Cl)cc1Cl [Compound A5, 2-(2,4-dichlorophenyl)isoindolin-1-one] | 54 | 68.4 ± 5.72 | 38 | 49 | 54
